Experimental data as given in patent US8754038B2, “Template-fixed peptidomimetics with CCR10 antagonistic activity” (priority 2009, dated 2014).
Square brackets hold non-standard residues; d marks the D form. Peptide text beside a SMILES is read from it. * marks the point of attachment. Phe(4-CF3) = N[C@@H](Cc1ccc(C(F)(F)F)cc1)C(=O)O; Trp(5-OH) = N[C@@H](Cc1c[nH]c2ccc(O)cc12)C(=O)O; Phe(4-CN) = N#Cc1ccc(C[C@H](N)C(=O)O)cc1; Phe(4-Cl) = N[C@@H](Cc1ccc(Cl)cc1)C(=O)O; Tic(7-OH) = O=C(O)[C@@H]1Cc2ccc(O)cc2CN1; Hyp = O=C(O)[C@@H]1C[C@@H](O)CN1; Tic = O=C(O)[C@@H]1Cc2ccccc2CN1; Benzyl(4-Br) = Brc1ccc(C*)cc1; Thz = O=C(O)[C@@H]1CSCN1; Ac5c = NC1(C(=O)O)CCCC1; Dab = NCC[C@H](N)C(=O)O; dAze = O=C(O)[C@H]1CCN1; Bn = c1ccc(C*)cc1

Target: T1, human CCR10 (Homo sapiens, UniProt P46092)
T1 construct: expressed in transfected cells
T1 sequence (P46092 1-362): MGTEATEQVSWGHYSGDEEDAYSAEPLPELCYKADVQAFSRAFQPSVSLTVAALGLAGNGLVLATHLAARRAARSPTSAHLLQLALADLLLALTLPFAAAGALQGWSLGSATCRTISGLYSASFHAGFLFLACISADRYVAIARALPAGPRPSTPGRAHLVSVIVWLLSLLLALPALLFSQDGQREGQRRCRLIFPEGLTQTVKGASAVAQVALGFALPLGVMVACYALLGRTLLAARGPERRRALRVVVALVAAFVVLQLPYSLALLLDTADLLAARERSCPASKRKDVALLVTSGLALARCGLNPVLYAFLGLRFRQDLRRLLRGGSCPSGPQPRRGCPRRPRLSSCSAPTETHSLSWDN
Experiment: Calcium flux assay (CCR10 antagonism, CCL27 as agonist)
Assay type: cell-based
Details: CCR10 transfected 300-19 murine pre-B cells; CCL27 30 nM
Experimental: Lyophilized peptides were weighed on a Microbalance (Mettler MX5) and dissolved in aqueous 90% DMSO to a final concentration of 10 mM unless otherwise stated. Stock solutions were kept at +4° C., and protected from light.
Peptides were assayed for CCR10 antagonism in a calcium flux assay and in a chemotaxis assay using a mouse pre-B cell line 300-19 stably transfected with human CCR10, and with human CCL27 as agonist.
The calcium flux release was assessed using CCR10 transfected 300-19 murine pre-B cells. These cells were labeled as a batch with Calcium4 Reagent (Molecular Devices, Sunnyvale, Calif.) in HBSS buffer for 60 min.
After dispensing 8×10^4 cells in each well of a 384-well black plate, a concentrated solution of the β-hairpin peptidomimetics of this invention in HBSS+0.1% BSA+0.1% DMSO (final concentration) was added to the cells. The entire plate was centrifuged and placed in a Flexstation II (Molecular Devices) automated plate reader. After reading a 20 s baseline, the Flexstation dispensed CCL27 (RnD systems) at a final concentration of 30 nM in HBSS+0.1% BSA onto the cells and calcium flux was measured for an additional 70 s.
Alternatively a FIipR384 (Molecular Devices) was used for read out of the 384-well plates. In this case about 8×10^4 cells were placed in each well, centrifuged, placed in the FlipR and after 5 s of baseline reading, the β-hairpin peptidomimetics in HBSS+0.1% BSA+0.1% DMSO (final concentration) were added. After an incubation time of 5 min, the CCL27 solution was added to the mixture and the calcium flux was measured for 200 s.
The maximum signal was determined from control wells without inhibitor. Percentage of inhibition was calculated from a range of compound concentrations, which were subsequently used to calculate IC50 values (Softmax Pro, Molecular Devices). All steps were carried out at room temperature.

Row | Compound | IC50
1 | N=C(N)NCCC[C@@H]1NC(=O)[C@H](Cc2c[nH]c3ccccc23)NC(=O)C2(CCCC2)NC(=O)[C@H](Cc2c[nH]c3ccccc23)NC(=O)[C@@H]2Cc3ccc(O)cc3CN2C(=O)[C@H]2CCCN2C1=O [Ex. 3, cyclo(-Trp-Cyp-Trp-Arg-^DPro-Tic(7OH)—)] (cyclo([Ac5c]WR[dP][Tic(7-OH)]W)) | 78.5 ± 38.6 nM
2 | N=C(N)NCCC[C@@H]1NC(=O)[C@H](Cc2c[nH]c3ccccc23)NC(=O)C2(CCCC2)NC(=O)[C@H](Cc2c[nH]c3ccccc23)NC(=O)[C@@H]2CSCN2C(=O)[C@H]2CCCN2C1=O [Ex. 5, cyclo(-Trp-Cyp-Trp-Arg-DPro-Thz-)] (cyclo([Ac5c]WR[dP][Thz]W)) | 70.6 ± 20.1 nM
3 | N=C(N)NCCC[C@@H]1NC(=O)[C@H](Cc2c[nH]c3ccccc23)NC(=O)C2(CCCC2)NC(=O)[C@H](Cc2c[nH]c3ccc(O)cc23)NC(=O)[C@@H]2Cc3ccccc3CN2C(=O)[C@H]2CCCN2C1=O [Ex. 8, cyclo(-Trp(5OH)-Cyp-Trp-Arg-^DPro-Tic-)] (cyclo([Ac5c]WR[dP][Tic][Trp(5-OH)])) | 52.5 ± 3.5 nM
4 | N=C(N)NCCC[C@@H]1NC(=O)[C@H](Cc2c[nH]c3ccccc23)NC(=O)C2(CCCC2)NC(=O)[C@H](Cc2c[nH]c3ccccc23)NC(=O)[C@@H]2Cc3ccccc3CN2C(=O)[C@H]2CCN2C1=O [Ex. 25, cyclo(-Trp-Cyp-Trp-Arg-^DAze-Tic-)] (cyclo([Ac5c]WR[dAze][Tic]W)) | 70.4 ± 19.2 nM
5 | NCC[C@@H]1NC(=O)[C@H](Cc2c[nH]c3ccccc23)NC(=O)C2(CCCC2)NC(=O)[C@H](Cc2c[nH]c3ccccc23)NC(=O)[C@@H]2Cc3ccccc3CN2C(=O)[C@H]2CCN2C1=O [Ex. 26, cyclo(-Trp-Cyp-Trp-Dab-^DAze-Tic-)] (cyclo([Ac5c]W[Dab][dAze][Tic]W)) | 57 ± 26.4 nM
6 | NCC[C@@H]1NC(=O)[C@H](Cc2ccc(Cl)cc2)NC(=O)C2(CCCC2)NC(=O)[C@H](Cc2c[nH]c3ccccc23)NC(=O)[C@@H]2C[C@@H](OCc3ccccc3)CN2C(=O)[C@H]2CCCN2C1=O [Ex. 43, cyclo(-Trp-Cyp-Phe(4Cl)-Dab-^DPro-Hyp(Bn)-)] (cyclo([Ac5c][Phe(4-Cl)][Dab][dP][Hyp](Bn)W)) | 39.9 ± 34.8 nM
7 | NCC[C@@H]1NC(=O)[C@H](Cc2c[nH]c3ccccc23)NC(=O)C2(CCCC2)NC(=O)[C@H](Cc2ccc(C(F)(F)F)cc2)NC(=O)[C@@H]2C[C@@H](OCc3ccc(Br)cc3)CN2C(=O)[C@H]2CCCN2C1=O [Ex. 54, cyclo(-Phe(4CF3)-Cyp-Trp-Dab-^DPro-Hyp(4BrBn)-)] (cyclo([Ac5c]W[Dab][dP][Hyp](Benzyl(4-Br))[Phe(4-CF3)])) | 22.6 ± 13.6 nM
8 | NCC[C@@H]1NC(=O)[C@H](Cc2c[nH]c3ccccc23)NC(=O)C2(CCCC2)NC(=O)[C@H](Cc2c[nH]c3ccccc23)NC(=O)[C@@H]2C[C@@H](O)CN2C(=O)[C@H]2CCCN2C1=O [Ex. 103, cyclo(-Trp-Cyp-Trp-Dab-^DPro-Hyp-)] (cyclo([Ac5c]W[Dab][dP][Hyp]W)) | 190 ± 89.8 nM
9 | N#Cc1ccc(C[C@@H]2NC(=O)[C@@H]3C[C@@H](OCc4ccccc4)CN3C(=O)[C@H]3CCCN3C(=O)[C@H](CCC(N)=O)NC(=O)[C@H](Cc3c[nH]c4ccccc34)NC(=O)C3(CCCC3)NC2=O)cc1 [compound 47, cyclo(-Phe(4CN)-Cyp-Trp-Gln-^DPro-Hyp(Bn)-)] (cyclo([Ac5c]WQ[dP][Hyp](Bn)[Phe(4-CN)])) | 21.7 ± 3.9 nM
